Results from ChEMBL document CHEMBL2074280, “Acceleration of MRP-associated efflux of rhodamine 123 by genistein and related compounds” (Br J Cancer, 1996).

Experiments:
Assay type in all cases: functional, cell-based
[1] = target: ATP-dependent translocase ABCB1 (Homo sapiens, UniProt P08183); assay: TP_TRANSPORTER: increase in DNR intracellular accumulation (DNR: 0.5 uM, Genistein: 200 uM) in H69/LX4 cells; settings: h69/lx4, 200 µM
[2] = target: T1, Multidrug resistance-associated protein 1 (Homo sapiens, UniProt P33527); assay: TP_TRANSPORTER: increase in DNR intracellular accumulation (DNR: 0.5 uM, Genistein: 200 uM) in COR-L23/R cells
T1 sequence (P33527 whole entry): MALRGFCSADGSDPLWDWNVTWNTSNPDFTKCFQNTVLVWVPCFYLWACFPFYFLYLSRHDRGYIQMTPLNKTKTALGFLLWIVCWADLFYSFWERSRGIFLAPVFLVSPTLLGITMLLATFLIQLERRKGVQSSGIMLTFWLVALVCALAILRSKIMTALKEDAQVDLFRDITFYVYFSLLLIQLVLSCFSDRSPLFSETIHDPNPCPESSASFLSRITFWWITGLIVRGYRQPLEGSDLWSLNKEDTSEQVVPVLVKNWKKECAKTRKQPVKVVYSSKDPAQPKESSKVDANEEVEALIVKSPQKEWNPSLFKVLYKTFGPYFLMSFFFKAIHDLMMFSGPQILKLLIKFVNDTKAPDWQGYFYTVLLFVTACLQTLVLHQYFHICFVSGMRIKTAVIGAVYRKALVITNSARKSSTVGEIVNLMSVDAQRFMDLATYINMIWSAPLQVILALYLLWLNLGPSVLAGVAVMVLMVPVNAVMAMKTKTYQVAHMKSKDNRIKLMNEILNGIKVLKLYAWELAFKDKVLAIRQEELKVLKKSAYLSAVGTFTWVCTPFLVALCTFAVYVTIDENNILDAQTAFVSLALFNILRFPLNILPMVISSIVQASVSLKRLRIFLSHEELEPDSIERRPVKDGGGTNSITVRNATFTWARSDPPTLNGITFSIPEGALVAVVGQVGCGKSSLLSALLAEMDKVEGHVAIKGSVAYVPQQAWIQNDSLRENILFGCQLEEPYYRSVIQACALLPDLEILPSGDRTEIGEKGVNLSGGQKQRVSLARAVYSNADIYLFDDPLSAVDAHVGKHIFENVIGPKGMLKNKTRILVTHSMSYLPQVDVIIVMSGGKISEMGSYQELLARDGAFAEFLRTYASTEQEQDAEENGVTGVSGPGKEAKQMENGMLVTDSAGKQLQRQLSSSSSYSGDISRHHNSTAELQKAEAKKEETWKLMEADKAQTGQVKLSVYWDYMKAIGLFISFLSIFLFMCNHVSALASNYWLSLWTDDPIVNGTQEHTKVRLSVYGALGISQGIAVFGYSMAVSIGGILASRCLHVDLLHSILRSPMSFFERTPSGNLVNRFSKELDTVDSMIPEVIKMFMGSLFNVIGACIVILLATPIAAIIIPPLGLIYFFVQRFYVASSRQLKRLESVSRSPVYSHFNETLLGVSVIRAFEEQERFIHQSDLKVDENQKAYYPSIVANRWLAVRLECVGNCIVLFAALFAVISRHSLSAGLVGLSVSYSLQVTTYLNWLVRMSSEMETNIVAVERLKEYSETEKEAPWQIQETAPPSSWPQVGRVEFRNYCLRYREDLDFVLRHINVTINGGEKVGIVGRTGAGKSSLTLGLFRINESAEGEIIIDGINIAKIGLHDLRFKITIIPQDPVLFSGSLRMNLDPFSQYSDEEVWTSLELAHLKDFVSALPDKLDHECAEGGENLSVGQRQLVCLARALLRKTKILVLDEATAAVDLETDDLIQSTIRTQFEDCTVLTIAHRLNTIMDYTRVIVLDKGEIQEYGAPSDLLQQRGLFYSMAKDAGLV

[3] = target: T1, Multidrug resistance-associated protein 1; assay: TP_TRANSPORTER: increase in DNR intracellular accumulation (DNR: 0.5 uM, Genistein: 200 uM) in MOR-R cells

Measured: Activity

Chain of ATP-dependent translocase ABCB1 (P08183 whole entry): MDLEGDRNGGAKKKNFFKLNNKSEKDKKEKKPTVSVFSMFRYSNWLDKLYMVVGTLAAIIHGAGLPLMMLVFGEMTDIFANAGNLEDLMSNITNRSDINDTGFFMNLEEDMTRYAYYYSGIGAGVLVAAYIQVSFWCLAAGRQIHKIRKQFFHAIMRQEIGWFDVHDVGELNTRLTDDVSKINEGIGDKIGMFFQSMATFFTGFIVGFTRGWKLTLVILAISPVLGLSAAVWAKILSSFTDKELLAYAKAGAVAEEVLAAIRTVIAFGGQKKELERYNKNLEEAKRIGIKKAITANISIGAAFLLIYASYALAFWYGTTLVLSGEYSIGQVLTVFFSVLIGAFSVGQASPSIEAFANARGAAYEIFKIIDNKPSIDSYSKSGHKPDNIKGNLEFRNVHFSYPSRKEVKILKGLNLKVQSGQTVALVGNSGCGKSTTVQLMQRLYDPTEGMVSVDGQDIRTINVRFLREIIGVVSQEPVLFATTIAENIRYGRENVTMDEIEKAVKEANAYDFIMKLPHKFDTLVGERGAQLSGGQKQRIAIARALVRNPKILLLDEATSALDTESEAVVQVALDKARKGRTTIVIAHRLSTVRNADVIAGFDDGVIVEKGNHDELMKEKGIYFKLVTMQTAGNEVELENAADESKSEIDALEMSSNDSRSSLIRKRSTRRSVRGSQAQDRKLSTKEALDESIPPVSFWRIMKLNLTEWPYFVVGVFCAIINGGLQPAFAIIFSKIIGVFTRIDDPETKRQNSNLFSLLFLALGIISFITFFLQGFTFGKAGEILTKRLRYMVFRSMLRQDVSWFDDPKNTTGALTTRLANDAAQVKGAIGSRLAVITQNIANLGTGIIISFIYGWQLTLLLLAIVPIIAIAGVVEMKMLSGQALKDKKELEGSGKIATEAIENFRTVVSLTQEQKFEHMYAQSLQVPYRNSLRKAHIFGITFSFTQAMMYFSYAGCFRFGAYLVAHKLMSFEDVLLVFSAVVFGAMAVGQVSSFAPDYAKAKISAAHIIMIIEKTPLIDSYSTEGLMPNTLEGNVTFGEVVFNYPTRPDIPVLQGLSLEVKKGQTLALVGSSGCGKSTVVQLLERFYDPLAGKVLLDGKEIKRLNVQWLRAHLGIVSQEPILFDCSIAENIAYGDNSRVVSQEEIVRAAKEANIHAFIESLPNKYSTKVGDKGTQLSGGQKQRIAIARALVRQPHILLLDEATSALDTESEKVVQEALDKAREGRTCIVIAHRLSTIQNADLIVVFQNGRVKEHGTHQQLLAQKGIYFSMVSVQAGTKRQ

O=c1c(-c2ccc(O)cc2)coc2cc(O)cc(O)c12 [GENISTEIN]
inhibitor [+]: all assays above
